Results from ChEMBL document CHEMBL1909046, “DrugMatrix in vitro pharmacology data”.
Where a SMILES comes first, the peptide text is derived from it. Bridges are numbered along the chain shown (N, C = ends). [ ]: non-standard residue; d: D form. The star is where a group is joined. Threoninol(2S,3R) = C[C@@H](O)[C@H](CO)N*

Key:
[1] = biological target: T1, 5-hydroxytryptamine receptor 2C (Homo sapiens, UniProt P28335); assay: DRUGMATRIX: Serotonin (5-Hydroxytryptamine) 5-HT2C radioligand binding (ligand: [3H] Mesulergine); format: cell membranes, CHO-K1, Membrane; conditions: cho-k1; Not Active = under 50% inhibition at 10 µM
T1 sequence (P28335 whole entry): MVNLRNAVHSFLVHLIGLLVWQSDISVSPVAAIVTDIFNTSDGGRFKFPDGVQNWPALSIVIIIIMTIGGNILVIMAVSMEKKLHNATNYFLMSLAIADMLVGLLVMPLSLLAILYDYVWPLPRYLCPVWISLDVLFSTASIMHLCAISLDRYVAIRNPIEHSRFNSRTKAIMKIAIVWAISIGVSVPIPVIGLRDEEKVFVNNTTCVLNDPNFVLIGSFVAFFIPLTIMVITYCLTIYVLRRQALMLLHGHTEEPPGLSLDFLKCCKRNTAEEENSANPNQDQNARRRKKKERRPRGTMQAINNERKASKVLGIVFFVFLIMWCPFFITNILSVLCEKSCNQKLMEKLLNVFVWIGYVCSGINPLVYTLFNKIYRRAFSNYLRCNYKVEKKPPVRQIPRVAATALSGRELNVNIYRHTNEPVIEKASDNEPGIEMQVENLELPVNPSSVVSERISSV

[2] = DRUGMATRIX: Calcium Channel Type L, Phenylalkylamine radioligand binding (ligand: [3H] (-)-Desmethoxyverapamil (D-888)); format: cell membranes, Rattus norvegicus, Wistar, Brain, Membrane; conditions: Not Active = under 50% inhibition at 10 µM
[3] = DRUGMATRIX: Purinergic P2X radioligand binding (ligand: [3H] alpha, beta-Methylene-ATP); format: cell membranes, Oryctolagus cuniculus, New Zealand albino, Urinary bladder, Membrane; conditions: Not Active = under 50% inhibition at 10 µM
D(4) dopamine receptor = biological target: T2, D(4) dopamine receptor (Homo sapiens, UniProt P21917); assay: DRUGMATRIX: Dopamine D4.2 radioligand binding (ligand: [3H] Spiperone); format: cell membranes, Membrane; conditions: cho-k1; Not Active = under 50% inhibition at 10 µM
T2 sequence (P21917 whole entry): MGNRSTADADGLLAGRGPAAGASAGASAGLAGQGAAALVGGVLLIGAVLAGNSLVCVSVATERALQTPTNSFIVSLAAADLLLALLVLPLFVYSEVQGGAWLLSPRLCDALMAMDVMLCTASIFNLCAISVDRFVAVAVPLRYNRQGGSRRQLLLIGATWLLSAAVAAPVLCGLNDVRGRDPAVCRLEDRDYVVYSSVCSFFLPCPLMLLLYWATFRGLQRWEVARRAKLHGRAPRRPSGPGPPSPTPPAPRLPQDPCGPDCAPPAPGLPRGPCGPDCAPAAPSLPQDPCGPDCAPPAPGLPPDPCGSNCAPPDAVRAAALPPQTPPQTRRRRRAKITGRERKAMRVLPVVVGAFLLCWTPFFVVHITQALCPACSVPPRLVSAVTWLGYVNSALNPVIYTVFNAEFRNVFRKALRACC

[4] = biological target: Prostaglandin G/H synthase 1 (Homo sapiens, UniProt P23219); assay: biochemical; format: tissue-based, Platelet; conditions: platelet;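 further: inhibition of COX-1 enzyme activity, with arachidonic acid supplied as substrate; in other assays of this panel Not Active means under 50% inhibition at 10 µM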
[5] = DRUGMATRIX: Sigma2 radioligand binding (ligand: [3H] Ifenprodil); format: cell membranes, Rattus norvegicus, Wistar, Brain, Membrane; conditions: Not Active = under 50% inhibition at 10 µM

Chain of Prostaglandin G/H synthase 1 (P23219 whole entry): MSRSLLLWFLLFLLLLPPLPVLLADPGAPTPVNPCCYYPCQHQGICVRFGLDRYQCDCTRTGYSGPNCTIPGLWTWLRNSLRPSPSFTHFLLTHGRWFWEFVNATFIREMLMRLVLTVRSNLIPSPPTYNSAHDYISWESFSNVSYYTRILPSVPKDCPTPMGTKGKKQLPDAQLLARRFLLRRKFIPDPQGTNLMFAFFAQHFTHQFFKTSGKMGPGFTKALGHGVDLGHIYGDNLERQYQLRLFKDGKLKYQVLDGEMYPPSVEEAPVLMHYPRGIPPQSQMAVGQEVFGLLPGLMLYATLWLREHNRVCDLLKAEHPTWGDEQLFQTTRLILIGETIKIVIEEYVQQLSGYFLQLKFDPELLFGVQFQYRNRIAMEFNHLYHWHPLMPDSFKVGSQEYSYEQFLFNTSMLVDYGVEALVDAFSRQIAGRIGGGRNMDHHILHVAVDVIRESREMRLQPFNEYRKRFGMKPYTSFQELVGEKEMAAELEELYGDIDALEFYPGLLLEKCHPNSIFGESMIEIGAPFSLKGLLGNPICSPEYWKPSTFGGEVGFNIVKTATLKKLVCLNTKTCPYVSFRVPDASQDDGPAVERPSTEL

| SMILES | IC50 [1] | IC50 [2] | Ki [2] | IC50 [3] | Ki [3] | IC50 (D(4) dopamine receptor) | IC50 [4] | IC50 [5] | Ki [5] | IC50 ([5]; read-out: IC50) [nM] | Ki ([5]; read-out: Ki) [nM] | Ki [1] | Ki (D(4) dopamine receptor) | Ki [4] |
| --- | --- | --- | --- | --- | --- | --- | --- | --- | --- | --- | --- | --- | --- | --- |
| COc1ccccc1C(=O)N1CCC(Cc2ccccc2)CC1 | Not Active | Not Active | Not Active | Not Active | Not Active | Not Active | Not Active | Not Active | Not Active |  |  |  |  |  |
| Cc1ccccc1C(=O)N1CCC(Cc2ccccc2)CC1 | Not Active | Not Active | Not Active | Not Active | Not Active | Not Active | Not Active | Not Active | Not Active |  |  |  |  |  |
| O=C1CC[C@H](N2C(=O)c3ccccc3C2=O)C(=O)N1 | Not Active | Not Active | Not Active | Not Active | Not Active | Not Active | Not Active | Not Active | Not Active |  |  |  |  |  |
| N=C(Nc1ccccc1)Nc1ccccc1 | Not Active | Not Active | Not Active | Not Active | Not Active | Not Active | Not Active |  |  | 2640 | 1620 |  |  |  |
| C[C@@H](O)[C@H](CO)NC(=O)[C@@H]1CSSC[C@H](NC(=O)[C@H](N)Cc2ccccc2)C(=O)N[C@@H](Cc2ccccc2)C(=O)N[C@H](Cc2c[nH]c3ccccc23)C(=O)N[C@@H](CCCCN)C(=O)N[C@@H]([C@@H](C)O)C(=O)N1 (H-[dF]CF[dW]KTC-{Threoninol(2S,3R)}; disulfide 2-7) | Not Active | Not Active | Not Active | Not Active | Not Active | Not Active | Not Active | Not Active | Not Active |  |  |  |  |  |
| S=C=Nc1cccc2ccccc12 [1-NAPHTHYLISOTHIOCYANATE] | Not Active | Not Active | Not Active | Not Active | Not Active | Not Active | Not Active | Not Active | Not Active |  |  |  |  |  |
| C[C@](O)(CS(=O)(=O)c1ccc(F)cc1)C(=O)Nc1ccc(C#N)c(C(F)(F)F)c1 [(R)-BICALUTAMIDE] | Not Active | Not Active | Not Active | Not Active | Not Active | Not Active | Not Active | Not Active | Not Active |  |  |  |  |  |
| CCCC(=O)Nc1ccc(OCC(O)CNC(C)C)c(C(C)=O)c1 (stereo not drawn) [ACEBUTOLOL] | Not Active | Not Active | Not Active | Not Active | Not Active | Not Active | Not Active | Not Active | Not Active |  |  |  |  |  |
| CC(=O)Nc1ccc(O)cc1 [ACETAMINOPHEN] | Not Active | Not Active | Not Active | Not Active | Not Active | Not Active | Not Active | Not Active | Not Active |  |  |  |  |  |
| COc1cc2c(c3oc(=O)c4c(c13)CCC4=O)[C@@H]1C=CO[C@@H]1O2 [AFLATOXIN] | Not Active | Not Active | Not Active | Not Active | Not Active | Not Active | Not Active | Not Active | Not Active |  |  | Not Active | Not Active | Not Active |
| N=C(N)NC(=O)c1nc(Cl)c(N)nc1N [AMILORIDE] | Not Active | Not Active | Not Active | Not Active | Not Active | Not Active | Not Active | Not Active | Not Active |  |  |  |  |  |
| Cc1cc(=O)n(-c2ccccc2)n1C [ANTIPYRINE] | Not Active | Not Active | Not Active | Not Active | Not Active | Not Active | Not Active | Not Active | Not Active |  |  |  |  |  |
| CN1C(=O)COc2c(C(=O)NC3CN4CCC3CC4)cc(Cl)cc21 (stereo not drawn) [AZASETRON] | Not Active | Not Active | Not Active | Not Active | Not Active | Not Active | Not Active | Not Active | Not Active |  |  |  |  |  |
| C[C@H]1C[C@H]2[C@@H]3CCC4=CC(=O)C=C[C@]4(C)[C@@]3(Cl)[C@@H](O)C[C@]2(C)[C@@]1(O)C(=O)CO [BECLOMETHASONE] | Not Active | Not Active | Not Active | Not Active | Not Active | Not Active | Not Active | Not Active | Not Active |  |  |  |  |  |
| CCOC(=O)[C@H](CCc1ccccc1)N[C@H]1CCc2ccccc2N(CC(=O)O)C1=O [BENAZEPRIL] | Not Active | Not Active | Not Active | Not Active | Not Active | Not Active | Not Active | Not Active | Not Active |  |  |  |  |  |
| Nc1c(CC(=O)O)cccc1C(=O)c1ccc(Br)cc1 [BROMFENAC] | Not Active | Not Active | Not Active | Not Active | Not Active | Not Active |  | Not Active | Not Active |  |  |  |  |  |
| CCCCN1CCCCC1C(=O)Nc1c(C)cccc1C.Cl (stereo not drawn) [BUPIVACAINE HYDROCHLORIDE] | Not Active | Not Active | Not Active | Not Active | Not Active | Not Active | Not Active | Not Active | Not Active |  |  |  |  |  |
| O=C1CC2(CCCC2)CC(=O)N1CCCCN1CCN(c2ncccn2)CC1 [BUSPIRONE] | Not Active | Not Active | Not Active | Not Active | Not Active | Not Active | Not Active |  |  | 3380 | 2080 |  |  |  |
| C[C@@]12C(=O)OC(=O)[C@]1(C)[C@H]1CC[C@@H]2O1 [CANTHARIDIN] | Not Active | Not Active | Not Active | Not Active | Not Active | Not Active | Not Active | Not Active | Not Active |  |  |  |  |  |
| O=C(O)Cc1ccccc1Nc1c(Cl)cccc1Cl [DICLOFENAC] | Not Active | Not Active | Not Active | Not Active | Not Active | Not Active |  | Not Active | Not Active |  |  |  |  |  |
| CC(C)Cc1ccc(C(C)C(=O)O)cc1 (stereo not drawn) [IBUPROFEN] | Not Active | Not Active | Not Active | Not Active | Not Active | Not Active |  | Not Active | Not Active |  |  |  |  |  |
| COc1ccc2c(c1)c(CC(=O)O)c(C)n2C(=O)c1ccc(Cl)cc1 [INDOMETHACIN] | Not Active | Not Active | Not Active | Not Active | Not Active | Not Active |  | Not Active | Not Active |  |  |  |  |  |
| CC(C(=O)O)c1cccc(C(=O)c2ccccc2)c1 (stereo not drawn) [KETOPROFEN] | Not Active | Not Active | Not Active | Not Active | Not Active | Not Active |  | Not Active | Not Active |  |  |  |  |  |
| COc1ccc2cc([C@H](C)C(=O)O)ccc2c1 [NAPROXEN] | Not Active | Not Active | Not Active | Not Active | Not Active | Not Active |  | Not Active | Not Active |  |  |  |  |  |
